pIC50: −log10 of the molar value.
How the values were obtained:
ketol-isomerase [1] = target: ketol-isomerase (Aspergillus fumigatus, UniProt E9R5E2); test: nitro BT ketol-isomerase inhibition assay with crude A. fumigatus cell extract; assay type: biochemical; settings: UDP-GlcNAc 0 to 10 mM
Method: Briefly, in this experiment, a series of ketol-isomerase reactions were analyzed in parallel, wherein each reaction mixture contained Fru-6-P, glutamine, and crude A. fumigatus cell extract (as described in Example 3). In addition, reactions also contained various concentrations of UDP-GlcNAc, ranging from 0 to 10 mM. Reactions were incubated at 37° C. for 60 minutes, after which time the ketol-isomerase reactions were terminated by heating at 70° C. for 15 min. However, the ketol-isomerase reaction can also be terminated by boiling for 5 minutes. In addition, the ketol-isomerase reaction can be clarified following the inactivation step by centrifugation or filtration.
Following arrest of the ketol-isomerase reaction, the necessary reagents for the nitro BT reaction were added to each reaction mixture, including glutamate dehydrogenase enzyme and molar excesses of β-NAD, PMS, and nitro BT. After incubation at 37° C. for 90 minutes, the color development was quantitated by measurement of OD585 nm. […]
In this experiment, 50 μL aliquots of a ketol-isomerase reaction mixture containing 10 mM Fru-6-P, 10 mM Gln, 0.3 mg/mL crude A. fumigatus extract, and various concentrations of UDP-GlcNAc were incubated at 37° C. for 60 minutes. […] After incubation at 37° C. for 90 minutes, the color development was quantitated by OD585 nm.

ketol-isomerase [2] = target: T1, ketol-isomerase (Candida albicans, UniProt P53704); settings: C. albicans strain ATCC No. 10261 crude cell extracts; Milewski et al., J. Biol. Chem., 274:4000-4008 [1999]; read-out: IC50, inhibition of ketol-isomerase activity; cited from earlier work
T1 construct: ketol-isomerase activity in crude cell extract of Candida albicans ATCC10261 yeast-like cells; host or cells: Candida albicans ATCC 10261 crude cell extract
T1 sequence (P53704 2-713): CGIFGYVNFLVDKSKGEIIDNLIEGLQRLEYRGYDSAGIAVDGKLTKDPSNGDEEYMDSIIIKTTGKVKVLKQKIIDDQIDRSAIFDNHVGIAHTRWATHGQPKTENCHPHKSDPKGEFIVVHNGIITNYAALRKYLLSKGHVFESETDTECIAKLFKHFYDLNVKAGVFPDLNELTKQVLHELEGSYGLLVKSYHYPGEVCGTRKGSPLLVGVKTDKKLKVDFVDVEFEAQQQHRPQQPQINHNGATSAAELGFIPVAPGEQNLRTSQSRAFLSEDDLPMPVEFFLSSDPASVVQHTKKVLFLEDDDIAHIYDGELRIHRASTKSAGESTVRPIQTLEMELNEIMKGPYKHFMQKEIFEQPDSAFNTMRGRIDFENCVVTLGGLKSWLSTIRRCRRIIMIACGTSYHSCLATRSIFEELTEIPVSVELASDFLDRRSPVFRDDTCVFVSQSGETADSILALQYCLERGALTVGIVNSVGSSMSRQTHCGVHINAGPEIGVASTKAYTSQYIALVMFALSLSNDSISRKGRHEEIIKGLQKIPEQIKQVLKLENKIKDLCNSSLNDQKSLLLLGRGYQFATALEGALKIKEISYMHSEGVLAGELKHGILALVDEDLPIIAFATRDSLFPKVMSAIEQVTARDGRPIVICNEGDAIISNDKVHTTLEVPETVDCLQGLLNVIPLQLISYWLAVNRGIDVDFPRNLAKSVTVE

Chain of ketol-isomerase (Aspergillus fumigatus, UniProt E9R5E2) (E9R5E2 entry or part of it): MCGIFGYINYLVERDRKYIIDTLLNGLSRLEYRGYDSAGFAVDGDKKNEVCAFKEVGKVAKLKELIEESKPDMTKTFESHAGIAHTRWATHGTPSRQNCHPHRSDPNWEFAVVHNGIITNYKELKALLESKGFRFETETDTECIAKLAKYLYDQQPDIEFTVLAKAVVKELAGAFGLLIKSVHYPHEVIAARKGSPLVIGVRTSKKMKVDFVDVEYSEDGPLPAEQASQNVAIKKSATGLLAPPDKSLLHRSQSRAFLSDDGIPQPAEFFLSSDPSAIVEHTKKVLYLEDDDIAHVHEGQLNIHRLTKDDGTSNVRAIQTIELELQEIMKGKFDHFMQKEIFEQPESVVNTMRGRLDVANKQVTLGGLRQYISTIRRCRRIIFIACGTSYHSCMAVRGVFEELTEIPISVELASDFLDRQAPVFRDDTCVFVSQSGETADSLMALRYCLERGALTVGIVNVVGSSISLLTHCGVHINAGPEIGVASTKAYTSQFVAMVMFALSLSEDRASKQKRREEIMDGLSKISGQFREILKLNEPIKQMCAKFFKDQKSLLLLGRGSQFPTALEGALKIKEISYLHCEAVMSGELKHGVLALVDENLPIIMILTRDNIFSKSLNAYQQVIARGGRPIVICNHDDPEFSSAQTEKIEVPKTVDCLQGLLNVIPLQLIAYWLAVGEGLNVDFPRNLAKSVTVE

Question: For `CC(=O)N[C@H]1[C@@H](OP(=O)(O)OP(=O)(O)OC[C@H]2O[C@@H](n3ccc(=O)[nH]c3=O)[C@H](O)[C@@H]2O)O[C@H](CO)[C@@H](O)[C@@H]1O` [UDP-GlcNAc, UDP-N-acetylglucosamine], which “inhibition of ketol-isomerase activity in A. fumigatus crude extract (FIG. 5)” value (ketol-isomerase [1]) is on record?
Answer: inhibited by UDP-GlcNAc in a dose-dependent manner

Question: What about the pIC50 (ketol-isomerase [2]) of the same compound?
Answer: 3.16

Source: patent publication US6730495B2, “Methods for the identification of antimicrobial compounds” (Mycologics, Inc., priority 2001, dated 2004)
